From patent US20250034170A1, “SMALL MOLECULE MODULATORS OF GLUCOCEREBROSIDASE ACTIVITY AND USES THEREOF” (Vanqua Bio, Inc., priority 2021, published 2025)

Target: T1, GCase (Homo sapiens, UniProt P04062)
T1 construct: endogenous in cells; host or cells: HeLa cells
T1 sequence (P04062 40-536): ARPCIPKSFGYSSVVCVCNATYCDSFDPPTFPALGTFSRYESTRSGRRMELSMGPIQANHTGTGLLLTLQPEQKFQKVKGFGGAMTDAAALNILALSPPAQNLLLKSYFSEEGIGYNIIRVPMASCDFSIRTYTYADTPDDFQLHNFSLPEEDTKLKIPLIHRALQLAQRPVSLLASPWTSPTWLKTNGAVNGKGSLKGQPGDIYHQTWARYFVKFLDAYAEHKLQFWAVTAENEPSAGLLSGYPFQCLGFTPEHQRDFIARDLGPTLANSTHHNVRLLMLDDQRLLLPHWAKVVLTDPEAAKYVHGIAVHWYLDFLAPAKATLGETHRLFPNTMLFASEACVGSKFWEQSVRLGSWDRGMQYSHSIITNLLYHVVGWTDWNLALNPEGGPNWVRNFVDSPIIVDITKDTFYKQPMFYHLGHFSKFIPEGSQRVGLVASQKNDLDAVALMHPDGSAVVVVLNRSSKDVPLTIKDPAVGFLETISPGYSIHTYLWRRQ
Test: activation of GCase in a live cell PFB assay in HELA cells
Assay type: cell-based
Procedure: Exemplary compounds were evaluated for activation of GCase in a live cell PFB assay in HELA cells (essentially as described in Ysselstein et al., “LRRK2 kinase activity regulates lysosomal glucocerebrosidase in neurons derived from Parkinson's disease patients” Nature Communications (2019) 10:5570). […] EC50 ranges: A: <10 μM; B: >10-50 μM; C: >50-100 μM; D: >100 μM.

[1] = activation of GCase, EC50 ranges

| SMILES | EC50 [1] [µM] | EC50 (EC50 given as range classes) [µM] |
| --- | --- | --- |
| O=C1N(c2cc(C(F)(F)F)ccn2)C(=O)C2(CCN(c3cnc4cnn(CC(F)F)c4n3)CC2)N1Cc1ccccc1 [Compound 70, 1-benzyl-8-(1-(2,2-difluoroethyl)-1H-pyrazolo[3,4-b]pyrazin-6-yl)-3-(4-(trifluoromethyl)pyridin-2-yl)-1,3,8-triazaspiro[4.5]decane-2,4-dione] | < 10 |  |
| Cn1c(N2CCC3(CN(c4ccc(C(F)(F)F)nc4)C3)C2)nc2c(cnn2CC(F)F)c1=O [Cmpd 997] |  | < 10 |
| Cc1nc(N2CC[C@]3(CCN(c4cnc5c(C)nn(C6COC6)c5n4)C3)C2)cc(C(F)(F)F)n1 [Cmpd 1122] | 10 to 50 |  |
| Cn1c(=O)n(C2COC2)c2nc(N3CCC4(CN(c5ccnc(C(F)(F)F)c5)C4)C3)ncc21 [Cmpd 1141] | < 10 |  |
| FC(F)Cn1ncc2ncc(N3CCC4(CCC(Oc5ccncc5C(F)(F)F)C4)CC3)nc21 (stereo not shown) [Cmpd 687] | < 10 |  |
| Cc1ncc(N2CCC3(CCN(c4cnc5cnn(CC(F)F)c5n4)CC3)C2)nc1C(F)(F)F [Cmpd 764] | < 10 |  |
| O=C1CC2(CCN(c3cnc4cnn(CC(F)F)c4n3)CC2)CN1c1ccnc(C(F)(F)F)n1 [Cmpd 895] | < 10 |  |
| FC(F)Cn1ncc2cnc(N3CC4(CCN(c5ccnc(C(F)(F)F)c5)C4)C3)nc21 [Cmpd 351] | < 10 |  |
| Cc1nn(CC(F)F)c2nc(N3CCC4(CC3)CCN(c3ccc(C(F)(F)F)nc3)C4=O)cnc12 [Cmpd 260] | < 10 |  |
| COc1nn(CC(F)F)c2nc(N3CCC4(CC3)CC(=O)N(c3ccc(C(F)(F)F)nc3)C4)ncc12 [Cmpd 948] | 10 to 50 |  |
| FC(F)Cn1ncc2cnc(N3CCC4(CCN(c5cnc(C(F)(F)F)nc5)C4)C3)nc21 (stereo not shown) [Cmpd 546] | 10 to 50 |  |
| FC(F)Cn1ncc2ncc(N3CCC4(CC3)CC(Oc3ccc(C(F)(F)F)cn3)C4)nc21 [Cmpd 710] | 10 to 50 |  |
| O=C1N(c2cnc3cnn(CC(F)F)c3n2)CCCC12CN(c1ccc(C(F)(F)F)cn1)C2 [Cmpd 343] | > 100 |  |
| COc1nn(C2COC2)c2nc(N3CCC4(CN(c5ccnc(C(F)(F)F)c5)C4)C3)cnc12 [Cmpd 943] | < 10 |  |
| FC(F)Cn1ncc2ncc(N3CCC4(CC3)CC(COc3cccc(C(F)(F)F)n3)C4)nc21 [Compound 85, 7-[1-(2,2-difluoroethyl)-1H-pyrazolo[3,4-b]pyrazin-6-yl]-2-({[6-(trifluoromethyl)pyridin-2-yl]oxy}methyl)-7-azaspiro[3.5]nonane] | 10 to 50 |  |
| O=C1N(c2ccnc(C(F)(F)F)n2)CCC12CCN(c1cnc3cnn(CC(F)F)c3n1)CC2 [Cmpd 896] | < 10 |  |
| FC(F)(F)c1ncc(N2CC3(CCN(c4cnc5cnn([C@@H]6CCOC6)c5n4)C3)C2)cn1 [Cmpd 655] | 10 to 50 |  |
| FC(F)Cn1ncc2ncc(N3CCC4(CC3)CC(COc3ncccc3C(F)(F)F)C4)nc21 [Cmpd 700] | < 10 |  |
| O=C1CC2(CCN1c1cnc3cnn(CC(F)F)c3n1)CN(c1ccc(C(F)(F)F)nc1)C2 [Cmpd 913] | 10 to 50 |  |
| Cc1nn(CC(F)F)c2nc(N3CC4(CCN(c5ccnc(C(F)(F)F)c5)C4)C3)ncc12 [Cmpd 352] | < 10 |  |

| SMILES | EC50 [1] [µM] | EC50 (EC50 given as range classes) [µM] |
| --- | --- | --- |
| Cc1nccc(N2CCC3(CCN(c4cnc5cnn(CC(F)F)c5n4)CC3)C2)n1 [Cmpd 758] | < 10 |  |
| FC(F)Cn1ncc2ncc(N3CCC4(CCCN4c4ccnc(C(F)(F)F)c4)C3)nc21 (stereo not shown) [Compound 188, 7-[1-(2,2-difluoroethyl)-1H-pyrazolo[3,4-b]pyrazin-6-yl]-1-[2-(trifluoromethyl)pyridin-4-yl]-1,7-diazaspiro[4.4]nonane] |  | > 100 |
| FC(F)Cn1ncc2ncc(N3CC4(CC(COc5cc(C(F)(F)F)ccn5)C4)C3)nc21 [Compound 132, 2-[1-(2,2-difluoroethyl)-1H-pyrazolo[3,4-b]pyrazin-6-yl]-6-({[4-(trifluoromethyl)pyridin-2-yl]oxy}methyl)-2-azaspiro[3.3]heptane] | 10 to 50 |  |
| Fc1cnc(C(F)(F)F)cc1N1CCC2(CCN(c3cnc4cnn(CC(F)F)c4n3)CC2)C1 [Cmpd 741] | < 10 |  |
| Cc1cc(N2CC3(CCN(c4cnc5cnn(CC(F)F)c5n4)CC3)CC2=O)nc(C(F)(F)F)n1 [Cmpd 529] | < 10 |  |
| CC(C)c1cnc(C(F)(F)F)cc1N1CC2(CCN(c3cnc4cnn(CC(F)F)c4n3)C2)C1 [Cmpd 1030] |  | < 10 |
| Cc1nc(N2CC3(CCN(c4ncc5c(n4)n(C4COC4)c(=O)n5C)C3)C2)cc(C(F)(F)F)n1 [Cmpd 899] | < 10 |  |
| O=C1N(c2cnc3cnn(CC(F)F)c3n2)CCC12CN(c1ccc(C(F)(F)F)nc1)C2 [Cmpd 1010] |  | 50 to 100 |
| FC(F)Cn1ncc2ncc(N3CCC4(CN(c5ccc(OC(F)F)nc5)C4)C3)nc21 [Cmpd 450] | 10 to 50 |  |
| COCCN1C(=O)N(c2cc(C(F)(F)F)ccn2)C(=O)C12CCN(c1cnc3cnn(CC(F)F)c3n1)CC2 [Cmpd 713] | < 10 |  |
| FC(F)(F)c1cc(N2CC3(CCN(c4cnc5cnn([C@H]6CCOC6)c5n4)C3)C2)ccn1 [Cmpd 1092] | > 100 |  |
| FC(F)(F)Cn1ncc2ncc(N3CCC4(CC3)CN(c3cc(C(F)(F)F)ccn3)C4)nc21 [Cmpd 477] | < 10 |  |
| CCn1c(=O)n(C2COC2)c2nc(N3CCC4(CN(c5ccnc(C(F)(F)F)c5)C4)C3)cnc21 [Cmpd 981] |  | 10 to 50 |
| FC(F)Cn1ncc2ncc(N3CCC4(CN(c5ccc(OC(F)(F)F)nc5)C4)C3)nc21 [Cmpd 451] | 10 to 50 |  |
| O=C1CCC2(CCN(c3cnc4cnn(CC(F)F)c4n3)C2)CN1c1ccc(C(F)(F)F)cn1 (stereo not shown) [Cmpd 792] |  | < 10 |
| Cc1cc(N2CC3(CCN(c4ncc5c(C)nn(C6COC6)c5n4)C3)C2)nc(C(F)(F)F)n1 [Cmpd 471] | < 10 |  |
| O=C1CC2(CN(c3cnc4cnn(CC(F)F)c4n3)C2)CN1c1ccnc(C(F)(F)F)c1 [Cmpd 338] | 10 to 50 |  |
| O=C1N(c2ccc(C(F)(F)F)nc2)C(c2ccccc2)CC12CCN(c1cnc3cnn(CC(F)F)c3n1)CC2 (stereo not shown) [Cmpd 291] | < 10 |  |
| Cc1nn(CC(F)F)c2nc(N3CCC4(CCN(c5ccnc(C(F)(F)F)c5)C4)C3)cnc12 (stereo not shown) [Cmpd 485] | > 100 |  |
| Cc1nc(N2CCC3(C2)CN(c2ncc4cnn(C5COC5)c4n2)C3)cc(C(F)(F)F)n1 [Cmpd 557] | 10 to 50 |  |

| SMILES | EC50 [1] [µM] | EC50 (EC50 given as range classes) [µM] |
| --- | --- | --- |
| O=C1CC2(CCN(c3cnc4cnn(C5COC5)c4n3)CC2)CN1c1cnc(C(F)(F)F)cn1 [Cmpd 862] | > 100 |  |
| Cc1ccc(S(=O)(=O)N2CC3(CCN(c4cnc5cnn(CC(F)F)c5n4)C3)C2)cn1 [Cmpd 416] |  | 10 to 50 |
| CCOc1nn(C2COC2)c2nc(N3CCC4(CC3)CC(=O)N(c3ccc(C(F)(F)F)nc3)C4)cnc12 [Cmpd 951] | < 10 |  |
| CCN1C(=O)N(c2cnc3cnn(CC(F)F)c3n2)C(=O)C12CCN(c1ccc(C(F)(F)F)nc1)CC2 [Cmpd 861] | < 10 |  |
| Cc1nc(N2CCC3(CCN(c4ncc5cnn(CC(F)(F)F)c5n4)CC3)C2)cc(C(F)(F)F)n1 [Cmpd 572] | < 10 |  |
| Cc1nn(CC(F)F)c2nc(N3CCC4(CC3)CC(=O)N(c3cc(C(F)(F)F)ccn3)C4)cnc12 [Cmpd 283] | < 10 |  |
| FC(F)(F)c1ccnc(N2CC3(CCN(c4ncc5cnn(C6COC6)c5n4)CC3)C2)c1 [Cmpd 478] | < 10 |  |
| FC(F)OCCn1ncc2ncc(N3CCC4(CCN(c5cc(C(F)(F)F)ccn5)C4)CC3)nc21 [Cmpd 751] | 10 to 50 |  |
| O=C1N(c2cc(C(F)F)ccn2)CCC12CCN(c1cnc3cnn(CC(F)F)c3n1)CC2 [Compound 165, 8-[1-(2,2-difluoroethyl)-1H-pyrazolo[3,4-b]pyrazin-6-yl]-2-[4-(difluoromethyl)pyridin-2-yl]-2,8-diazaspiro[4.5]decan-1-one] | < 10 |  |
| O=C1N(c2ncc3cnn(CC(F)F)c3n2)CCC12CN(c1ccnc(C(F)(F)F)c1)C2 [Cmpd 999] |  | 10 to 50 |
| O=C1CC2(CCN(c3ccc(C(F)(F)F)cn3)CC2)CN1c1cnc2cnn(CC(F)F)c2n1 [Compound 112, 2-[1-(2,2-difluoroethyl)-1H-pyrazolo[3,4-b]pyrazin-6-yl]-8-[5-(trifluoromethyl)pyridin-2-yl]-2,8-diazaspiro[4.5]decan-3-one] | 10 to 50 |  |
| Cc1nc2cnn(CC(F)F)c2nc1N1CCC2(CCN(c3cc(C(F)(F)F)ccn3)C2)CC1 [Compound 179, 8-[1-(2,2-difluoroethyl)-5-methyl-1H-pyrazolo[3,4-b]pyrazin-6-yl]-2-[4-(trifluoromethyl)pyridin-2-yl]-2,8-diazaspiro[4.5]decane] |  | 10 to 50 |
| O=C1CC2(CN1c1ccc(C(F)(F)F)cn1)C1CC2CN(c2cnc3cnn(CC(F)F)c3n2)C1 (stereo not shown) [Cmpd 802] |  | 10 to 50 |
| CC(c1ccc(C(F)(F)F)cn1)N1CC2(CCN(c3cnc4cnn(CC(F)F)c4n3)CC2)CC1=O (stereo not shown) [Cmpd 964] | < 10 |  |
| CCOc1ccc(CN2CC3(CCN(c4cnc5cnn(CC(F)F)c5n4)CC3)CC2=O)cn1 [Cmpd 361] | 10 to 50 |  |
| O=C1CC2(CCN(c3cnc4cnn(C5COC5)c4n3)CC2)CN1c1nccc(C(F)(F)F)n1 [Cmpd 279] | < 10 |  |
| FC(F)Cn1ncc2ncc(N3CCC4(CCN(c5cnc(C(F)(F)F)cn5)CC4)CC3)nc21 [Cmpd 814] |  | < 10 |
| FC(F)Cn1ncc2ncc(N3CCC4(CCC4COc4cccc(C(F)(F)F)n4)CC3)nc21 (stereo not shown) [Compound 82, 7-[1-(2,2-difluoroethyl)-1H-pyrazolo[3,4-b]pyrazin-6-yl]-1-({[6-(trifluoromethyl)pyridin-2-yl]oxy}methyl)-7-azaspiro[3.5]nonane] | 10 to 50 |  |
